From PubChem BioAssay (NCI)
Values joined by “and” are separate entries in the source; they are usually repeats but may differ in a detail not shown here. Equal entries are not always repeated.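 Results reflect a 48-hour exposure of cells in 96-well plates to compound at five concentrations. GI50 marks 50% less growth. At the TGI there is no net growth.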

Key:
Experiment in all cases: DTP human tumour cell line panel, 48 h
[1] = system: EKVX NSCLC
[2] = system: M14 melanoma
[3] = system: NCI-H226 lung
[4] = system: OVCAR-3 ovarian
[5] = system: SF-539 CNS
[6] = system: UACC-62 melanoma
[7] = system: BT-549 breast
[8] = system: DU-145 prostate
[9] = system: MDA-MB-435
[10] = system: PC-3 prostate

Row | SMILES | TGI [1] | TGI [2] | TGI [3] | TGI [4] | TGI [5] | TGI [6] | GI50 [7] | TGI [7] | GI50 [8] | TGI [8] | GI50 [1] | GI50 [2] | GI50 [9] | TGI [9] | GI50 [4] | GI50 [10] | TGI [10] | GI50 [5] | GI50 [6] | GI50 [3]
1 | Cc1[nH]c(=O)n2c(C)nnc2c1C(=O)Nc1cc(Cl)cc(Cl)c1 | > 100 µM | > 100 µM | 68.5 µM | 40.8 µM | 78.4 µM | 41 µM |  |  |  |  |  |  |  |  |  |  |  |  |  | 
2 | CN(C)C=[N+]=[N-] | > 100 µM | > 100 µM | > 100 µM | > 100 µM | > 100 µM | > 100 µM |  |  |  |  |  |  |  |  |  |  |  |  |  | 
3 | CCC[CH2][Sn]([CH2]CCC)([CH2]CCC)[O]C(=O)c1ccc(Cl)cc1Cl | 0.273 µM | 0.29 µM |  | 0.259 µM | 0.327 µM | 0.368 µM | 0.119 µM | 0.251 µM | 0.128 µM | 0.257 µM | 0.099 µM | 0.147 µM | 0.16 µM | 0.335 µM | 0.13 µM | 0.202 µM | 0.471 µM | 0.172 µM | 0.161 µM | 
4 | OC(CNCC1CCCO1)Cn1c2ccc(Cl)cc2c2cc(Cl)ccc21 (stereo not given) |  |  | 8.1 µM | 3.28 µM | 3.13 µM | 3.46 µM | 5.98 µM | 27.1 µM | 1.83 µM | 3.37 µM |  |  | 1.66 µM | 3.02 µM | 1.82 µM | 1.93 µM | 3.74 µM | 1.66 µM | 1.78 µM | 2.42 µM
5 | CCCC/C=C1\CCC(C)(CN(C)C)C1=O (stereo not given) | > 100 µM | > 100 µM |  | > 100 µM | > 100 µM | > 100 µM |  |  |  |  |  |  |  |  |  |  |  |  |  | 
6 | COc1ccccc1C1c2cc3c(cc2OC(O)(CO)C1C(=O)O)OCO3 (stereo not given) (tested in a mixture with another compound) | > 100 µM | > 100 µM | > 100 µM | > 100 µM | > 100 µM | > 100 µM |  |  |  |  |  |  |  |  |  |  |  |  |  | 
7 | C[C@]12CCC(=O)C(O)=C1CC[C@@H]1C2CC[C@]2(C)Nc3c(cnn3-c3ccccc3)CC12 (stereo not given in full) | > 100 µM | > 100 µM | > 100 µM | > 100 µM | > 100 µM | > 100 µM |  |  |  |  |  |  |  |  |  |  |  |  |  | 
8 | Cc1ccc([N+](=O)[O-])cc1NC(=O)c1cccc([N+](=O)[O-])c1O | 72 µM | 56.7 µM | 51.9 µM | 64.6 µM | 54.1 µM | 38.1 µM |  |  |  |  |  |  |  |  |  |  |  |  |  | 
9 | C=C1C(=O)OC2C=C(CCC(C)=O)C(C)C(OC(C)=O)CC12 (stereo not given) | 26 µM | 20.7 µM | 32.8 µM | 26 µM | 28.5 µM | 27.4 µM |  |  |  |  |  |  |  |  |  |  |  |  |  | 
10 | O=C1CCCC(=O)N1CCc1c[nH]c2ccccc12 | > 100 µM | > 100 µM | > 100 µM | > 100 µM | > 100 µM | > 100 µM |  |  |  |  |  |  |  |  |  |  |  |  |  | 
11 | COc1cc(C(O)C(=O)c2nc3ccc([N+](=O)[O-])cc3[nH]c2=O)ccc1O (stereo not given) | > 100 µM | > 100 µM | > 100 µM | > 100 µM | > 100 µM | > 100 µM |  |  |  |  |  |  |  |  |  |  |  |  |  | 
12 | CNC(=O)CC1NC(=O)c2csc(n2)-c2ccc(-c3nc(C4=NC(C(=O)N5CCCC5C(N)=O)CO4)cs3)nc2-c2csc(n2)-c2csc(n2)C(C(C)C)NC(=O)CNC(=O)c2csc(n2)C(C(C)C)NC(=O)c2nc1sc2C (stereo not given) | > 25 µM |  | > 25 µM | 0.937 µM |  | > 25 µM | > 25 µM | 4.5 µM and > 25 µM | > 25 µM | > 25 µM | > 25 µM |  | < 0.001 µM |  |  |  |  | > 25 µM | > 25 µM | > 25 µM
